The results in this text go back to US20100285964A1, “SALTS OF 2-IODO-N-[(4-METHOXY-6-METHYL-1,3, 5-TRIAZINE-2-YL) CARBAMOYL] BENZENESULFONAMIDE, METHOD FOR THE PRODUCTION THEREOF AND USE THEREOF AS HERBICIDES AND PLANT GROWTH REGULATORS” (BayerCropScience AG, priority 2007, published 2010).

Common to all, as to format: in vivo
The test system of data set [1] is Matricaria inodora, Papaver rhoeas, Stellaria media and Viola tricolor. In words: Pre-emergence herbicidal action, greenhouse. Conditions: pre-emergence method, application rate of 0.08 kg or less of active substance per hectare, scored after 3 to 4 weeks. An excerpt: Seeds or rhizome pieces of mono- and dicotyledonous weeds were placed in sandy loam in cardboard pots and covered with soil. The compounds according to the invention, formulated in the form of wettable powders or emulsion concentrates, were then applied to the surface of the covering soil in the form of aqueous suspensions or emulsions at an application rate of 100 to 800 l of water/ha (converted), at various dosages.
After the treatment, the pots were placed in a greenhouse and kept under good growth conditions for the weeds. The visual scoring of the damage to the plants or the emergence damage was carried out after the emergence of the test plants after a test period of 3 to 4 weeks, by comparison with untreated controls. As shown by the results, the compounds according to the invention have good herbicidal pre-emergence activity against a broad spectrum of weed grasses and broad-leaved weeds.

The subject of data set [2] is Amaranthus retroflexus, Lolium multiflorum, Abuthilon theophrasti, Matricaria inodora, Ipomoea purpurea, Panicum minor, Stellaria media, Solanum nigrum …. As to the kind of experiment: Post-emergence herbicidal action, greenhouse. Conditions: post-emergence method, application rate of 0.08 kg or less of active substance per hectare, scored after about 10 to 28 days. The method, then:
Seeds or rhizome pieces of monocotyledonous and dicotyledonous weeds were placed in sandy loam in plastic pots, covered with soil and cultivated in a greenhouse under good growth conditions. Three weeks after sowing, the test plants were treated at the three-leaf stage. The compounds according to the invention, formulated as wettable powders or as emulsion concentrates, were sprayed onto the green parts of the plants at various dosages using a water application rate of from 100 to 800 l/ha (converted).

A further data set has as its system Panicum minor. As to the kind of experiment: Post-emergence herbicidal action, field trial (Table A-1). Particulars: 20 g of ai/ha (acid equivalent for salts), 3-5-leaf stage, 25 days after application, 0%=no control, 100%=complete control. An excerpt:
(§1) In a direct comparison, under field trial conditions (time of application 3-5-leaf stage of the weeds examined), the activities of the weed control of the free acid “2-iodo-N-[(4-methoxy-6-methyl-1,3,5-triazin-2-yl)carbamoyl]benzenesulfonamide” known from DE 27 15 786 were compared to individual salts according to the invention of 2-iodo-N-[(4-methoxy-6-methyl-1,3,5-triazin-2-yl)carbamoyl]benzenesulfonamide (compound I-3 (potassium salt of 2-iodo-N-[(4-methoxy-6-methyl-1,3,5-triazin-2-yl)carbamoyl]benzenesulfonamide) and 1-4 (magnesium salt of 2-iodo-N-[(4-methoxy-6-methyl-1,3,5-triazin-2-yl)carbamoyl]benzenesulfonamide)), evaluation being carried out 25 days after application. With respect to the activity, both a representative of a monocotyledonous weed (Panicum minor) and a representative of a dicotyledonous weed (Solanum nigrum) were scored according to the scheme below:
(§2) 0%=no control 100%=complete control

The next data set concerns Solanum nigrum. Described as above. Particulars: 20 g of ai/ha (acid equivalent for salts), 3-5-leaf stage, 25 days after application, 0%=no control, 100%=complete control.
Description: as §1, §2

The subject of another data set is Chenopodium album. As to the kind of experiment: Post-emergence herbicidal action, outdoor trial (Table A-2). Particulars: 2-4-leaf stage, 28 days after application.
Description: (§3) In a further direct comparison, under outdoor trial conditions (time of application 2-4-leaf stage of the weeds examined), the activities of the weed control of the free acid “2-iodo-N-[(4-methoxy-6-methyl-1,3,5-triazin-2-yl)carbamoyl]benzene-sulfonamide” known from DE 27 15 786 were compared to the inventive Na^+ salt of 2-iodo-N-[(4-methoxy-6-methyl-1,3,5-triazin-2-yl)carbamoyl]benzenesulfonamide (compounds I-2 according to the invention) at various application rates, evaluation being carried out 28 days after application. With respect to the activity, the weeds Chenopodium album, Fagopyran repens and Pennisetum glauca were scored according to the scheme below:
as §2

In another data set the test system is Fagopyran repens. Described as above. Particulars: 2-4-leaf stage, 28 days after application.
Description: as §3, §2

The next data set has as its system Pennisetum glauca. Described as above. Particulars: 30 g of ai/ha (acid equivalent for salt), 2-4-leaf stage, 28 days after application.
Description: as §3, §2

The subject of a further data set is broad bean (Vicia faba). As to the kind of experiment: Replanting behavior, crop sown in treated soil. Particulars: scored after four weeks. The method, then:
(§4) In further tests, various dosages of the test substances were worked into the soil. Subsequently, various crop plants were sown in plastic pots filled with the treated soil and cultivated in a greenhouse using a day/night rhythm of 22° C./14° C. After four weeks, the plants were scored according to the scheme below.
(§5) 0%=no damage 100%=complete damage

Data set [3] deals with oilseed rape (Brassica napus). In words: Replanting behavior, crop sown in treated soil. Particulars: scored after four weeks. The method, then:
as §4, §5

In a further data set the test system is sugar beet. In words: Replanting behavior, crop sown in treated soil. Conditions: scored after four weeks. The procedure: as §4, §5
Setting [4] is: 15 g of ai/ha (acid equivalent for salt).
Setting [5] is: 30 g of ai/ha (acid equivalent for salt).
Setting [6] is: 0.1 g of ai/ha worked into the soil.
[7] abbreviates: 0.5 g of ai/ha worked into the soil.
Setting [8] is: 1.9 g of ai/ha worked into the soil.
The mark [9] stands for this setting: 7.5 g of ai/ha worked into the soil.
Setting [10] is: 30 g of ai/ha worked into the soil, 0%=no damage, 100%=complete damage.

Turning to “2-Iodo-N-[(4-methoxy-6-methyl-1,3,5-triazin-2-yl)carbamoyl]benzenesulfonamide tetraethylammonium salt [Compound I-12]”, the “herbicidal activity, pre-emergence (visual scoring)” value (“herbicidal activity, pre-emergence” for short) in data set [1] was “very good herbicidal activity”. In addition, the “herbicidal activity, post-emergence (visual scoring)” value (“herbicidal activity, post-emergence” for short) in data set [2] is recorded as “very good herbicidal activity”.

For the molecule `COc1nc(C)nc(NC(=O)NS(=O)(=O)c2ccccc2I)n1.[Mg]` [Compound I-4, 2-Iodo-N-[(4-methoxy-6-methyl-1,3,5-triazin-2-yl)carbamoyl]benzenesulfonamide magnesium salt], in data set [1], the “herbicidal activity, pre-emergence” value is recorded as “very good herbicidal activity”. In data set [2], the “herbicidal activity, post-emergence” value was “very good herbicidal activity”. In addition, in the data set with Panicum minor, the “Panicum minor control in %” value was determined as 48%. For the same molecule, the “Solanum nigrum control in %” value with Solanum nigrum was determined as 85%.

Turning to `COc1nc(C)nc(NC(=O)NS(=O)(=O)c2ccccc2I)n1.[K]` [Compound I-3, 2-Iodo-N-[(4-methoxy-6-methyl-1,3,5-triazin-2-yl)carbamoyl]benzenesulfonamide potassium salt], the “herbicidal activity, pre-emergence” value in [1] is given as “very good herbicidal activity”. Further, in data set [2], the “herbicidal activity, post-emergence” value is given as “very good herbicidal activity”. The “Panicum minor control in %” value in the data set on Panicum minor stood at 30%. In addition, the “Solanum nigrum control in %” value in the data set with Solanum nigrum is 84%.

For `COc1nc(C)nc(NC(=O)NS(=O)(=O)c2ccccc2I)n1.[Na]` [Compound I-2, 2-Iodo-N-[(4-methoxy-6-methyl-1,3,5-triazin-2-yl)carbamoyl]benzenesulfonamide sodium salt], in [1], the “herbicidal activity, pre-emergence” value is “very good herbicidal activity”. For the same molecule, the “herbicidal activity, post-emergence” value in data set [2] is listed as “very good herbicidal activity”. The “Chenopodium album Control in %” value in the data set on Chenopodium album (setting [4]) is 93%; with Chenopodium album (setting [5]), 100%. Moreover, the “Fagopyran repens Control in %” value in the data set with Fagopyran repens (setting [4]) was 30%; in the data set with Fagopyran repens (setting [5]), 45%. Besides, the “Pennisetum glauca Control in %” value in the data set on Pennisetum glauca came out at 85%. The “Vicia faba damage in %” value came to 2.5% in the data set with broad bean (Vicia faba) (setting [6]); 2.5% in the data set with broad bean (Vicia faba) (setting [7]); 2.5% in the data set on broad bean (Vicia faba) (setting [8]); 49% in the data set with broad bean (Vicia faba) (setting [9]); 93% in the data set on broad bean (Vicia faba) (setting [10]). Also, the “Brassica napus damage in %” value in data set [3] (setting [6]) amounted to 0%; in data set [3] (setting [7]), 1%; in data set [3] (setting [8]), 29%; in data set [3] (setting [9]), 83%; in [3] (setting [10]), 94%. The “Sugar beet damage in %” value with sugar beet (setting [6]) came out at 0%; in the data set on sugar beet (setting [7]), 1%; in the data set on sugar beet (setting [8]) it was 61%; with sugar beet (setting [9]), 85%; in the data set on sugar beet (setting [10]) it was 92%.

Take `COc1nc(C)nc(NC(=O)NS(=O)(=O)c2ccccc2I)n1` [2-Iodo-N-[(4-methoxy-6-methyl-1,3,5-triazin-2-yl)carbamoyl]benzenesulfonamide, reference compound]: the “Panicum minor control in %” value in the data set with Panicum minor is listed as 0%. For the same molecule, in the data set on Solanum nigrum, the “Solanum nigrum control in %” value stood at 70%. The “Chenopodium album Control in %” value with Chenopodium album (setting [4]) is on record as 90%; with Chenopodium album (setting [5]) it was 98%. The “Fagopyran repens Control in %” value came out at 25% with Fagopyran repens (setting [4]) and 40% in the data set on Fagopyran repens (setting [5]). Besides, in the data set with Pennisetum glauca, the “Pennisetum glauca Control in %” value is recorded as 80%.

For “2-Iodo-N-[(4-methoxy-6-methyl-1,3,5-triazin-2-yl)carbamoyl]benzenesulfonamide tetrabutylammonium salt [Compound I-18]”, the “herbicidal activity, pre-emergence” value in [1] was “very good herbicidal activity”. The “herbicidal activity, post-emergence” value in data set [2] is given as “very good herbicidal activity”.

For the molecule `COc1nc(C)nc(NC(=O)NS(=O)(=O)c2ccccc2I)n1.[Li]` [Compound I-1, 2-Iodo-N-[(4-methoxy-6-methyl-1,3,5-triazin-2-yl)carbamoyl]benzenesulfonamide lithium salt], the “herbicidal activity, pre-emergence” value in [1] was “very good herbicidal activity”. Also, the “herbicidal activity, post-emergence” value in data set [2] is “very good herbicidal activity”.

On to `COc1nc(C)nc(NC(=O)NS(=O)(=O)c2ccccc2I)n1.NCCO` [Compound I-19, 2-Iodo-N-[(4-methoxy-6-methyl-1,3,5-triazin-2-yl)carbamoyl]benzenesulfonamide-(2-hydroxyeth-1-yl)ammonium salt], for which, in data set [1], the “herbicidal activity, pre-emergence” value was “very good herbicidal activity”. Besides, the “herbicidal activity, post-emergence” value in [2] is reported as “very good herbicidal activity”.
